Test results from ChEMBL document CHEMBL1201862, “PubChem BioAssay data set” (2004).
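Protocol summary: plate cells (96-well), add compound at 5 concentrations, incubate 48 h, interpolate endpoints linearly. Here, GI50 denotes the concentration required for 50% inhibition of growth.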 Activity calls are given as the source filed them. No stated cut-off is given here; in the data, active = GI50 up to about 1.1 µM and inactive = higher.

Columns and labels:
Test in all cases: growth of human tumour cells (NCI), 48 h
786-0 = system: 786-0
HL-60 = system: HL-60
HOP-62 = system: HOP-62
HT-29 = system: HT-29
KM12 = system: KM12
MOLT-4 = system: MOLT-4
Malme-3M = system: Malme-3M
NCI-H23 = system: NCI-H23
NCI-H522 = system: NCI-H522
SK-MEL-5 = system: SK-MEL-5
SK-OV-3 = system: SK-OV-3
SNB-19 = system: SNB-19
SNB-75 = system: SNB-75
TK-10 = system: TK-10
U-251 = system: U-251
UO-31 = system: UO-31
MCF7 = system: MCF7
MDA-MB-231 = system: MDA-MB-231
Hs-578T = system: Hs-578T

Measured: GI50

O=C(CSc1nnc(-c2ccc(/N=C\c3ccc(Cl)cc3)cc2)o1)Nc1ccccc1[N+](=O)[O-]
inactive: 786-0 > 100 µM | HL-60 > 100 µM | HOP-62 > 100 µM | HT-29 > 100 µM | KM12 > 100 µM | MOLT-4 > 100 µM | Malme-3M > 100 µM | NCI-H23 > 100 µM | NCI-H522 > 100 µM | SK-MEL-5 > 100 µM | SK-OV-3 > 100 µM | SNB-19 > 100 µM | SNB-75 > 100 µM | TK-10 > 100 µM | U-251 > 100 µM | UO-31 > 100 µM

CC#CC(O)(C(=O)OC1CCC2CCC1N2C)C1CCCC1 (stereo not drawn)
inactive: 786-0 > 100 µM | HOP-62 > 100 µM | HT-29 > 100 µM | KM12 > 100 µM | MCF7 > 100 µM | MDA-MB-231 > 100 µM | MOLT-4 > 100 µM | Malme-3M > 100 µM | NCI-H23 > 100 µM | NCI-H522 > 100 µM | SK-MEL-5 > 100 µM | SK-OV-3 > 100 µM | SNB-19 > 100 µM | SNB-75 > 100 µM | TK-10 > 100 µM | U-251 > 10 µM | UO-31 > 100 µM

CC1(C)Cc2nnsc2C2=C1C(=O)CCS2
inactive: 786-0 > 100 µM | HL-60 > 100 µM | HOP-62 > 100 µM | HT-29 > 100 µM | KM12 > 100 µM | MOLT-4 > 100 µM | Malme-3M > 100 µM | NCI-H23 > 100 µM | NCI-H522 > 100 µM | SK-MEL-5 > 100 µM | SK-OV-3 > 100 µM | SNB-19 > 100 µM | SNB-75 24 µM | TK-10 > 100 µM | U-251 60.4 µM | UO-31 > 100 µM

CCC(/C(=N/NC(=O)C[N+](C)(C)C)c1ccccc1)C1OC(=O)c2ccccc21 (stereo not drawn)
inactive: 786-0 > 100 µM | HL-60 > 100 µM | HOP-62 > 100 µM | HT-29 > 100 µM | KM12 > 100 µM | MOLT-4 > 100 µM | Malme-3M > 100 µM | NCI-H23 > 100 µM | NCI-H522 > 100 µM | SK-MEL-5 > 100 µM | SK-OV-3 > 100 µM | SNB-19 > 100 µM | SNB-75 > 100 µM | TK-10 > 100 µM | U-251 > 100 µM | UO-31 > 100 µM

O=C1c2[nH]c3ccc(Br)cc3c2CCN1Cc1ccc(Cl)cc1
inactive: 786-0 11.3 µM | HL-60 17.3 µM | HOP-62 12.9 µM | HT-29 > 100 µM | Hs-578T 17.1 µM | KM12 14.1 µM | MCF7 16.6 µM | MDA-MB-231 11.9 µM | Malme-3M 15.3 µM | NCI-H23 17.1 µM | NCI-H522 17.9 µM | SK-MEL-5 10.9 µM | SNB-19 15.1 µM | SNB-75 20.9 µM | TK-10 13.7 µM | U-251 12.5 µM | UO-31 16.4 µM

O=C(O)CSc1nnc(-c2ccc(O)cc2)[nH]1
inactive: 786-0 > 100 µM | HL-60 > 100 µM | HOP-62 > 100 µM | HT-29 > 100 µM | KM12 > 100 µM | MOLT-4 > 100 µM | Malme-3M > 100 µM | NCI-H23 > 100 µM | NCI-H522 > 100 µM | SK-MEL-5 > 100 µM | SK-OV-3 > 100 µM | SNB-19 > 100 µM | SNB-75 41 µM | TK-10 > 100 µM | U-251 > 100 µM | UO-31 > 100 µM
